According to patent US20220274980A1, “PHARMACOLOGICAL INHIBITORS OF THE ENL YEATS DOMAIN” (priority 2019, published 2022):
Read-outs that look alike come from different tables or passages of the source.

Key:
[1] = molecular target: T1, ENL YEATS domain (association with H3K27cr) (Homo sapiens, UniProt Q03111); assay: biochemical; details: ENL (YEATS)-H3K27cr HTRF (IC50, μM)
T1 sequence (Q03111 1-148): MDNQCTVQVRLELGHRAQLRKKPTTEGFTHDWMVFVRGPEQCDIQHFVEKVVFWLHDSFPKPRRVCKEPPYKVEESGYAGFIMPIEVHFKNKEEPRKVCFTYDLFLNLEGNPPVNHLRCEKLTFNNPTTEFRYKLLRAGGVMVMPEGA

ENL(YEATS)-HiBiT [2] = molecular target: T2, ENL(YEATS)-HiBiT (Homo sapiens, UniProt Q03111); assay: cell-based
T2 sequence (Q03111 1-138 limits assumed): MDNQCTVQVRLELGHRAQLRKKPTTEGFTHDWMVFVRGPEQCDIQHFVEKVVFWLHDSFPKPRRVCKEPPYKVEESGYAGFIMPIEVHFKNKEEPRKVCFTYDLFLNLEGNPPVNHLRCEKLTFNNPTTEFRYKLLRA

[3] = Half-life in mouse liver microsomes; type: in vitro ADME
ENL(YEATS)-HiBiT [4] = molecular target: T2, ENL(YEATS)-HiBiT; details: read-out: ENL YEATS CETSA (IC50); Table 2; OCI/AML-2 cells expressing ENL(YEATS)-HiBiT
BRD4 bromodomain 1 (BD1) = molecular target: T3, BRD4 bromodomain 1 (BD1) (Homo sapiens, UniProt O60885); assay: BRD4 (BD1)-H4 tetra-acetylated HTRF histone-binding assay
T3 construct: Selectivity against BRD4 bromodomain 1 (BD1), measured by HTRF; His; purchased Cayman 11720
Procedure, shortened: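 Recombinant BRD4 BD1 (10 nM) was combined with 13.3 nM biotinylated tetra-acetylated H4 peptide, Eu-anti-His antibody and APC-streptavidin in HEPES buffer, pH 7. Compound was pin-transferred and plates incubated ≥2 h before HTRF reading (665/620 nm ratio). Percent inhibition was normalised to vehicle (maximum) and no-peptide (minimum) wells.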

[5] = Half-life in human liver microsomes; type: in vitro ADME; details: read-out: t1/2 (min) human liver microsomes
[6] = read-out: t1/2 (min) mouse liver microsomes
[7] = without NADPH, read-out: t1/2 mouse (min liver microsomes (without NADPH))

Compound | IC50 ([1]; Table 1) [µM] | IC50 ([1]; Table 2) [µM] | IC50 (ENL(YEATS)-HiBiT [2]) [µM] | half-life [3, 6] [min] | IC50 (ENL(YEATS)-HiBiT [4]) [µM] | IC50 (BRD4 bromodomain 1 (BD1); Table 1) [µM] | IC50 (BRD4 bromodomain 1 (BD1); Table 2) [µM] | half-life [3, 7] [min] | half-life [5] [min]
O=C(NC1CCC1)c1ccc2nc(-c3cccc(NS(=O)(=O)CCCN4CCCCC4)c3)cn2c1 [Compound 104] | 0.134 | 0.134 | 1.03 | 14.5 | – | – | – | – | –
Cc1ccc(-c2cn3cc(C(=O)NC(C)C)ccc3n2)cc1C [Compound 25] | > 50 | > 50 | > 100 | – | > 100 | > 50 | > 50 | – | –
COc1ccccc1-c1cn2cc(C(=O)NC(C)C)ccc2n1 [Compound 10] | > 50 | > 50 | > 100 | – | > 100 | > 50 | > 50 | – | –
CC1CCN(CCNS(=O)(=O)Nc2cccc(-c3cn4cc(C(=O)NC5CCC5)ccc4n3)c2)CC1 [Compound 100] | 0.029 | 0.029 | 0.238 | 4.04 | – | – | – | 463 | –
CC(C)NC(=O)c1ccc2nc(-c3ccc(OC(F)(F)F)cc3)cn2c1 [Compound 19] | > 50 | > 50 | > 100 | – | > 100 | > 50 | > 50 | – | –
CC(C)NC(=O)c1ccc2nc(-c3cccc(C(F)(F)F)c3)cn2c1 [Compound 21] | 15 | 15 | > 100 | – | > 100 | > 50 | > 50 | – | –
O=C(CCN1CCCCC1)Nc1cccc(-c2cn3cc(C(=O)NC4CCC4)ccc3n2)c1 [Compound 102] | 0.478 | 0.478 | 0.536 | 34.1 | – | – | – | 138 | –
O=C(CN1CCCCC1)Nc1cccc(-c2cn3cc(C(=O)NC4CCC4)ccc3n2)c1 [Compound 112] | 0.172 | 0.172 | 1.07 | 6.16 | – | – | – | – | –
O=C(NC1CCC1)c1ccc2nc(-c3cccc(NS(=O)(=O)NCCN4CCCCC4=O)c3)cn2c1 [Compound 95] | 0.21 | 0.21 | 1.05 | 6.07 | – | – | – | 504 | –
O=C(CCN1CCNCC1)Nc1cccc(-c2cn3cc(C(=O)NC4CCC4)ccc3n2)c1 [Compound 114] | 0.261 | 0.261 | 4.5 | 323 | – | – | – | – | 2960
COC1CCN(CCNS(=O)(=O)Nc2cccc(-c3cn4cc(C(=O)NC5CCC5)ccc4n3)c2)CC1 [Compound 94] | 0.197 | 0.197 | 1.52 | 5.23 | – | – | – | 774 | –
CC1(C)CCN(CCNS(=O)(=O)Nc2cccc(-c3cn4cc(C(=O)NC5CCC5)ccc4n3)c2)CC1 [Compound 101] | 0.062 | 0.062 | 0.297 | 2.29 | – | – | – | 405 | –
O=C(NC1CCC1)c1ccc2nc(-c3cccc(S(=O)(=O)NCCCN4CCCCC4)c3)cn2c1 [Compound 105] | 0.84 | 0.84 | 3.24 | 9.7 | – | – | – | – | –
O=C(NC1CCC(O)CC1)c1ccc2nc(-c3ccccc3)cn2c1 (stereo not drawn) [Compound 2] | > 50 | > 50 | > 100 | – | > 100 | > 50 | > 50 | – | –
